Assay in all cases: NCI anticancer screen, dose series, 48 h
For experiment [1], the system named is A549.
The test system of experiment [2] is CAKI-1.
Experiment [3] deals with DU-145.
The subject of experiment [4] is EKVX.
Experiment [5] concerns Hs-578T.
In experiment [6] the test system is K562.
In experiment [7] the test system is MCF7.
In experiment [8] the test system is MOLT-4.
Experiment [9] has as its system NCI-H23.
For experiment [10], the system named is NCI-H460.
For experiment [11], the system named is OVCAR-3.
Experiment [12] relates to OVCAR-5.
Experiment [13] deals with OVCAR-8.
For experiment [14], the system named is RPMI-8226.
The test system of experiment [15] is SF-295.
The subject of experiment [16] is SK-MEL-2.
The subject of experiment [17] is SN12C.
Experiment [18] concerns SR.
Experiment [19] concerns TK-10.

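1) Cells in 96-well plates. 2) Compound, 48 h, 5 concentrations. 3) Linear interpolation between surrounding doses. 4) Unreached endpoint = highest concentration. GI50 = concentration required for 50% inhibition of growth.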 Activity calls are given as the source filed them. Cut-off read from the data, not from the text of the source: active = GI50 up to about 1.1 µM and inactive = higher.

Take `O=C(C(=O)n1ccc2ccccc21)n1ccc2ccccc21`: the GI50 in [1] is 83.2 µM (inactive); in [2] it was > 100 µM (inactive); in experiment [3], > 100 µM (inactive); in experiment [4], > 100 µM (inactive); in experiment [5], 27.5 µM (inactive); in experiment [6] it was 71.4 µM (inactive). For the same molecule, the GI50 in [7] was > 100 µM (inactive); in experiment [8], > 100 µM (inactive); in experiment [9], 75.3 µM (inactive); in experiment [10], 36.6 µM (inactive); in experiment [11] it was > 100 µM (inactive); in experiment [12], > 100 µM (inactive). For the same molecule, the GI50 was 59.7 µM (inactive) in [13]; > 100 µM (inactive) in experiment [14]; 37.6 µM (inactive) in experiment [15]; > 100 µM (inactive) in experiment [16]; > 100 µM (inactive) in [17]; 40.1 µM (inactive) in experiment [18]. In addition, the GI50 in [19] was > 100 µM (inactive).

For `COc1cc2c(cc1OCCN1CCN(CCOc3cc4c(cc3OC)C(=O)N3CCC[C@H]3C=N4)CC1)N=C[C@@H]1CCCN1C2=O`, the GI50 was > 88.9 µM (inactive) in [1]; 14 µM (inactive) in experiment [2]; 37.5 µM (inactive) in [3]; > 96.6 µM (inactive) in experiment [4]; 41.6 µM (inactive) in experiment [5]; 15 µM (inactive) in [6]. Moreover, the GI50 in experiment [7] is 18.2 µM (inactive); in experiment [8], 2.06 µM (inactive); in [9], 17.1 µM (inactive); in [10], 13.5 µM (inactive); in experiment [11], 25.9 µM (inactive); in experiment [12] it was 26.2 µM (inactive). The GI50 is 35.3 µM (inactive) in experiment [13]; 1.56 µM (inactive) in [14]; 8.83 µM (inactive) in [15]; 26 µM (inactive) in [16]; 9.46 µM (inactive) in [17]; 0.362 µM (active) in experiment [18]. Also, the GI50 in experiment [19] was 23.8 µM (inactive).

For `CNC(=O)N(C)/N=N/CCCl`, the GI50 in experiment [1], in [2], in experiment [3], in experiment [4], in experiment [5] and in [6] was > 100 µM (inactive) throughout. In addition, the GI50 in experiment [7], in experiment [8], in [9], in [10], in experiment [11] and in experiment [12] was > 100 µM (inactive) in each case. The GI50 in experiment [13], in [14], in experiment [15], in [16], in experiment [17] and in experiment [18] was > 100 µM (inactive) throughout. In experiment [19], the GI50 is > 100 µM (inactive).

Regarding `COc1ccc(S(=O)(=O)NC(CCC(=O)NN)C(=O)NN)cc1` (stereo unspecified), the GI50 in experiment [1], in experiment [2], in experiment [3], in experiment [4], in [5] and in experiment [6] was > 100 µM (inactive) in each case. For the same molecule, the GI50 in experiment [7], in [8], in experiment [9], in experiment [10], in experiment [11] and in [12] was > 100 µM (inactive) each time. In addition, the GI50 in [13], in [14], in experiment [15], in [16], in [17] and in experiment [18] was > 100 µM (inactive) in each case. Besides, the GI50 in experiment [19] is > 100 µM (inactive).
